Test results reported in patent US11596692B1 (Incyte Corporation, priority 2018, dated 2023).
Like-named read-outs stand apart in the source and are kept apart here.

Test system: IRF3
Assay: IRF3 activation assay in THP-1 Dual cells
Type: cell-based
Conditions: Homo sapiens, read-out: THP1 IRF3 EC50
Procedure, shortened: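 THP-1 Dual cells (100,000/well) were treated with serially diluted compound for 24 h at 37° C, 5% CO2. IRF3 reporter activity in supernatant was read with QUANTI-Blue as absorbance at 620-655 nm after 2 h, with untreated cells as negative control. EC50 came from fitting percent control activity against log concentration.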

SMILES | EC50 (THP-1, Table 4A) | EC50 (THP-1, Table 4B) | EC50 (THP-1, Table 4C)
CCn1nc(C)cc1C(=O)Nc1nc2cc(C(N)=O)cc(OCCCO)c2n1C/C=C/Cn1c2nc(-c3cc(C)nn3CC)ncc2c2cc(C(N)=O)cc(OCCCOC(=O)NCCC(=O)O)c21 [Example S62, (E)-3-((3-(6-carbamoyl-9-(4-(5-carbamoyl-2-(1-ethyl-3-methyl-1H-pyrazole-5-carboxamido)-7-(3-hydroxypropoxy)-1H-benzo[d]imidazol-1-yl)but-2-enyl)-2-(1-ethyl-3-methyl-1H-pyrazol-5-yl)-9H-pyrimido[4,5-b]indol-8-yloxy)propoxy)carbonylamino)propanoic acid] | – | – | 50 to 200 nM
CCn1nc(C)cc1C(=O)Nc1nc2cc(C(N)=O)cc(OCCCNC(=O)CCC(=O)O)c2n1C/C=C/Cn1c2nc(-c3cc(C)nn3CC)ncc2c2cc(C(N)=O)cc(OCCCOC)c21 [Example S64, (E)-4-((3-((5-carbamoyl-1-(4-(6-carbamoyl-2-(1-ethyl-3-methyl-1H-pyrazol-5-yl)-8-(3-methoxypropoxy)-9H-pyrimido[4,5-b]indol-9-yl)but-2-en-1-yl)-2-(1-ethyl-3-methyl-1H-pyrazole-5-carboxamido)-1H-benzo[d]imidazol-7-yl)oxy)propyl)amino)-4-oxobutanoic acid] | – | – | 50 to 200 nM
CCn1nc(C)cc1C(=O)Nc1nc2cc(C(N)=O)cc(OC)c2n1C/C=C/Cn1c2nc(-c3cc(C)nn3CC)ncc2c2cc(C(N)=O)cc(OCCC3CCN(C(=O)OCC(=O)O)CC3)c21 [Example S61] | – | – | 50 to 200 nM
CCn1nc(C)cc1C(=O)Nc1nc2cc(C(N)=O)cc(OCCCOC)c2n1C/C=C/Cn1c2nc(-c3cc(C)nn3CC)ncc2c2cc(C(N)=O)cc(OCCOCCOCCC(=O)O)c21 [Example S58, (E)-3-(2-(2-(6-carbamoyl-9-(4-(5-carbamoyl-2-(1-ethyl-3-methyl-1H-pyrazole-5-carboxamido)-7-(3-methoxypropoxy)-1H-benzo[d]imidazol-1-yl)but-2-enyl)-2-(1-ethyl-3-methyl-1H-pyrazol-5-yl)-9H-pyrimido[4,5-b]indol-8-yloxy)ethoxy)ethoxy)propanoic acid] | – | – | 50 to 200 nM
CCn1nc(C)cc1C(=O)Nc1nc2cc(C(N)=O)cc(OCCCOC(=O)NCCC(=O)O)c2n1C/C=C/Cn1c2nc(-c3cc(C)nn3CC)ncc2c2cc(C(N)=O)cc(OCCOCCOCCC(=O)O)c21 [Example S63, (E)-3-(((3-((5-carbamoyl-1-(4-(6-carbamoyl-8-(2-(2-(2-carboxyethoxy)ethoxy)ethoxy)-2-(1-ethyl-3-methyl-1H-pyrazol-5-yl)-9H-pyrimido[4,5-b]indol-9-yl)but-2-en-1-yl)-2-(1-ethyl-3-methyl-1H-pyrazole-5-carboxamido)-1H-benzo[d]imidazol-7-yl)oxy)propoxy)carbonyl)amino)propanoic acid] | – | – | 200 to 500 nM
CCn1nc(C)cc1C(=O)Nc1nc2cc(C(N)=O)cc(OC(C)C)c2n1C/C=C/Cn1c2nc(-c3cc(C)nn3CC)ncc2c2cc(C(N)=O)cc(OCCCOC)c21 [Example S35, (E)-9-(4-(5-carbamoyl-2-(1-ethyl-3-methyl-1H-pyrazole-5-carboxamido)-7-isopropoxy-1H-benzo[d]imidazol-1-yl)but-2-en-1-yl)-2-(1-ethyl-3-methyl-1H-pyrazol-5-yl)-8-(3-methoxypropoxy)-9H-pyrimido[4,5-b]indole-6-carboxamide] | – | – | 50 to 200 nM
CCn1nc(C)cc1C(=O)Nc1nc2cc(C(N)=O)cc(OCCCOC(=O)c3cc(C)nn3CC)c2n1C/C=C/Cn1c2nc(-c3cc(C)nn3CC)ncc2c2cc(C(N)=O)cc(OCCCN3CCOCC3)c21 [Example S19, (E)-3-((5-carbamoyl-1-(4-(6-carbamoyl-2-(1-ethyl-3-methyl-1H-pyrazol-5-yl)-8-(3-morpholinopropoxy)-9H-pyrimido[4,5-b]indol-9-yl)but-2-en-1-yl)-2-(1-ethyl-3-methyl-1H-pyrazole-5-carboxamido)-1H-benzo[d]imidazol-7-yl)oxy)propyl 1-ethyl-3-methyl-1H-pyrazole-5-carboxylate] | ≤ 100 nM | < 200 nM | ≤ 50 nM
CCn1nc(C)cc1C(=O)Nc1nc2cc(C(N)=O)cc(C)c2n1C/C=C/Cn1c2ccc(C(N)=O)cc2c2cnc(-c3cc(C)nn3C)nc21 [Example S3, (E)-9-(4-(5-carbamoyl-2-(1-ethyl-3-methyl-1H-pyrazole-5-carboxamido)-7-methyl-1H-benzo[d]imidazol-1-yl)but-2-enyl)-2-(1,3-dimethyl-1H-pyrazol-5-yl)-9H-pyrimido[4,5-b]indole-6-carboxamide] | 100 to 500 nM | < 1000 nM | –
CCn1nc(C)cc1C(=O)Nc1nc2cc(C(N)=O)cc(OCCCNC(=O)OCCC(=O)O)c2n1C/C=C/Cn1c2nc(-c3cc(C)nn3CC)ncc2c2cc(C(N)=O)cc(OCCCOC)c21 [Example S44, (E)-3-(((3-((5-carbamoyl-1-(4-(6-carbamoyl-2-(1-ethyl-3-methyl-1H-pyrazol-5-yl)-8-(3-methoxypropoxy)-9H-pyrimido[4,5-b]indol-9-yl)but-2-en-1-yl)-2-(1-ethyl-3-methyl-1H-pyrazole-5-carboxamido)-1H-benzo[d]imidazol-7-yl)oxy)propyl)carbamoyl)oxy)propanoic acid] | – | – | ≤ 50 nM
CCn1nc(C)cc1C(=O)Nc1nc2cc(C(N)=O)c3ccoc3c2n1C/C=C/Cn1c2nc(-c3cc(C)nn3CC)ncc2c2cc(C(N)=O)cc(OC)c21 [Example S67, (E)-1-(4-(6-carbamoyl-2-(1-ethyl-3-methyl-1H-pyrazol-5-yl)-8-methoxy-9H-pyrimido[4,5-b]indol-9-yl)but-2-en-1-yl)-2-(1-ethyl-3-methyl-1H-pyrazole-5-carboxamido)-1H-benzofuro[6,7-d]imidazole-5-carboxamide] | ≤ 100 nM | – | –

Next, values leading:

EC50 (THP-1, Table 4A) | EC50 (THP-1, Table 4B) | EC50 (THP-1, Table 4C) | SMILES
≤ 100 nM | < 200 nM | ≤ 50 nM | CCn1nc(C)cc1C(=O)Nc1nc2cc(C(N)=O)cc(O)c2n1C/C=C/Cn1c2nc(-c3cc(C)nn3CC)ncc2c2cc(C(N)=O)cc(OCCCOC)c21 [Example S28, (E)-9-(4-(5-carbamoyl-2-(1-ethyl-3-methyl-1H-pyrazole-5-carboxamido)-7-hydroxy-1H-benzo[d]imidazol-1-yl)but-2-en-1-yl)-2-(1-ethyl-3-methyl-1H-pyrazol-5-yl)-8-(3-methoxypropoxy)-9H-pyrimido[4,5-b]indole-6-carboxamide]
– | – | ≤ 50 nM | CCn1nc(C)cc1C(=O)Nc1nc2cc(C(N)=O)cc(OCCCOC)c2n1C/C=C/Cn1c2nc(-c3cc(C)nn3CC)ncc2c2cc(C(N)=O)cc(OCCCNC(=O)OCCC(=O)O)c21 [Example S56, (E)-3-(3-(6-carbamoyl-9-(4-(5-carbamoyl-2-(1-ethyl-3-methyl-1H-pyrazole-5-carboxamido)-7-(3-methoxypropoxy)-1H-benzo[d]imidazol-1-yl)but-2-enyl)-2-(1-ethyl-3-methyl-1H-pyrazol-5-yl)-9H-pyrimido[4,5-b]indol-8-yloxy)propylcarbamoyloxy)propanoic acid]
≤ 100 nM | < 200 nM | ≤ 50 nM | CCn1nc(C)cc1C(=O)Nc1nc2cc(C(N)=O)cc(C)c2n1C/C=C/Cn1c2nc(-c3cc(C)nn3CC)ccc2c2cc(C(N)=O)cc(OC)c21 [Example S14, (E)-9-(4-(5-carbamoyl-2-(1-ethyl-3-methyl-1H-pyrazole-5-carboxamido)-7-methyl-1H-benzo[d]imidazol-1-yl)but-2-enyl)-2-(1-ethyl-3-methyl-1H-pyrazol-5-yl)-8-methoxy-9H-pyrido[2,3-b]indole-6-carboxamide]
– | – | ≤ 50 nM | CCn1nc(C)cc1C(=O)Nc1nc2cc(C(N)=O)cc(OCCCNC(=O)CCCC(=O)O)c2n1C/C=C/Cn1c2nc(-c3cc(C)nn3CC)ncc2c2cc(C(N)=O)cc(OCCCOC)c21 [Example S39, (E)-5-((3-((5-carbamoyl-1-(4-(6-carbamoyl-2-(1-ethyl-3-methyl-1H-pyrazol-5-yl)-8-(3-methoxypropoxy)-9H-pyrimido[4,5-b]indol-9-yl)but-2-en-1-yl)-2-(1-ethyl-3-methyl-1H-pyrazole-5-carboxamido)-1H-benzo[d]imidazol-7-yl)oxy)propyl)amino)-5-oxopentanoic acid]
≤ 100 nM | < 200 nM | ≤ 50 nM | CCn1nc(C)cc1C(=O)Nc1nc2cc(C(N)=O)cc(C)c2n1C/C=C/Cn1c2nc(-c3cc(C)nn3CC)ncc2c2cc(C(N)=O)cc(OCCCN3CCOCC3)c21 [Example S11, (E)-9-(4-(5-carbamoyl-2-(1-ethyl-3-methyl-1H-pyrazole-5-carboxamido)-7-methyl-1H-benzo[d]imidazol-1-yl)but-2-enyl)-2-(1-ethyl-3-methyl-1H-pyrazol-5-yl)-8-(3-morpholinopropoxy)-9H-pyrimido[4,5-b]indole-6-carboxamide]
– | – | ≤ 50 nM | CCn1nc(C)cc1C(=O)Nc1nc2cc(C(N)=O)cc(OCCOC(=O)c3cc(C)nn3CC)c2n1C/C=C/Cn1c2nc(-c3cc(C)nn3CC)ncc2c2cc(C(N)=O)cc(OCCCOC)c21 [Example S40, (E)-2-((5-carbamoyl-1-(4-(6-carbamoyl-2-(1-ethyl-3-methyl-1H-pyrazol-5-yl)-8-(3-methoxypropoxy)-9H-pyrimido[4,5-b]indol-9-yl)but-2-en-1-yl)-2-(1-ethyl-3-methyl-1H-pyrazole-5-carboxamido)-1H-benzo[d]imidazol-7-yl)oxy)ethyl 1-ethyl-3-methyl-1H-pyrazole-5-carboxylate]
– | – | ≤ 50 nM | CCn1nc(C)cc1C(=O)Nc1nc2cc(C(N)=O)cc(OC)c2n1C/C=C/Cn1c2nc(-c3cc(C)nn3CC)ncc2c2cc(C(N)=O)cc(OCCCNC(=O)CCCC(=O)O)c21 [Example S51, (E)-5-(3-(6-carbamoyl-9-(4-(5-carbamoyl-2-(1-ethyl-3-methyl-1H-pyrazole-5-carboxamido)-7-methoxy-1H-benzo[d]imidazol-1-yl)but-2-enyl)-2-(1-ethyl-3-methyl-1H-pyrazol-5-yl)-9H-pyrimido[4,5-b]indol-8-yloxy)propylamino)-5-oxopentanoic acid]
